# In ChEMBL document CHEMBL1122874, “Orally absorbable cephalosporin antibiotics. 1. Structure-activity relationships of benzothienyl- and naphthylglycine derivatives of 7-aminodeacetoxycephalosporanic acid” (1985):
# Experiments:
# [1] = system: Staphylococcus aureus; assay: Antibacterial activity against penicillin G sensitive Staphylococcus aureus X1.1.; type: functional
# [2] = system: Haemophilus influenzae; assay: Antibacterial activity against resistant Haemophilus influenzae 76.; type: functional
# [3] = system: Staphylococcus epidermidis; assay: Antibacterial activity against Staph. epidermis EP11; type: functional
# [4] = system: Staphylococcus aureus; assay: Antibacterial activity against methicillin resistant Staphylococcus aureus X400; type: functional
# [5] = system: Staphylococcus aureus; assay: Antibacterial activity against penicillin G sensitive Staphylococcus aureus V41; type: functional
# [6] = system: Staphylococcus aureus; assay: Antibacterial activity against methicillin resistant Staphylococcus aureus S13E.; type: functional
# [7] = system: Haemophilus influenzae; assay: Antibacterial activity against sensitive Haemophilus influenzae C.L.; type: functional
# [8] = system: Streptococcus pneumoniae; assay: Antibacterial activity against Streptococcus pneumoniae Park.
# [9] = system: Streptococcus pyogenes; assay: Antibacterial activity against Streptococcus pyogenes C203.; type: functional
# [10] = system: Staphylococcus aureus; assay: Antibacterial activity in mice infected with Staphylococcus aureus 3055 by subcutaneous administration; type: functional
# [11] = system: Staphylococcus aureus; assay: Antibacterial activity in mice infected with Staphylococcus aureus 3055 by oral administration; type: functional
# [12] = system: Streptococcus pneumoniae; assay: Antibacterial activity in mice infected with Streptococcus pneumoniae Park1; type: functional
# [13] = system: Streptococcus; assay: Antibacterial activity against Streptococcus group D X66.; type: functional
# [14] = system: Streptococcus pneumoniae; assay: Antibacterial activity in mice infected with Streptococcus pneumoniae Park1 by oral administration; type: functional
# [15] = system: Streptococcus pneumoniae; assay: Antibacterial activity in mice infected with Streptococcus pneumoniae Park1 by subcutaneous administration; type: functional
# [16] = system: Streptococcus pyogenes; assay: Antibacterial activity in mice infected with Streptococcus pyogenes C203 by subcutaneous administration; type: functional
# [17] = system: Streptococcus pyogenes; assay: Antibacterial activity in mice infected with Streptococcus pyogenes C203 by oral administration; type: functional
# [18] = system: Staphylococcus aureus; assay: Antibacterial activity in mice infected with Staphylococcus aureus 3055; type: functional
# [19] = system: Streptococcus pyogenes; assay: Antibacterial activity in mice infected with Streptococcus pyogenes C203; type: functional
# [20] = system: Streptococcus pneumoniae; assay: Antibacterial activity against Streptococcus pneumoniae Park.; type: functional
# [21] = system: Streptococcus pyogenes; assay: Antibacterial activity in mice infected with Streptococcus pyogenes C203 after oral administration; type: functional
# [22] = system: Streptococcus pyogenes; assay: Antibacterial activity in mice infected with Streptococcus pyogenes C203 after subcutaneous administration; type: functional
Structure (SMILES),MIC [1] [µg/mL],MIC [2] [µg/mL],MIC [3] [µg/mL],MIC [4] [µg/mL],MIC [5] [µg/mL],MIC [6] [µg/mL],MIC [7] [µg/mL],MIC [8] [µg/mL],MIC [9] [µg/mL],MIC [13] [µg/mL],other results
COc1ccc2c([C@@H](N)C(=O)NC3C(=O)N4C(C(=O)O)=C(C)CSC34)csc2c1 (stereo partly drawn),1,4,4,16,8,4,32,0.125,0.125,–,–
CC1=C(C(=O)O)N2C(=O)C(NC(=O)[C@H](N)c3ccc4ccccc4c3)C2SC1 (stereo partly drawn),0.5,2,4,64,8,8,8,0.5,0.125,64,ED50 [10]: 0.07 mg/kg; ED50 [11]: 0.41 mg/kg; MIC [12]: 1 µg/mL; ED50 [14]: > 25 mg/kg; ED50 [15]: 17.6 mg/kg; ED50 [16]: 2 mg/kg; ED50 [17]: 3.4 mg/kg; MIC [18]: 0.5 µg/mL; MIC [19]: 0.125 µg/mL
CC1=C(C(=O)O)N2C(=O)C(NC(=O)[C@@H](N)c3cc4ccccc4s3)C2SC1 (stereo partly drawn),0.5,1,2,–,–,–,32,2,0.5,–,ED50 [10]: 0.13 mg/kg; ED50 [11]: 0.13 mg/kg; MIC [12]: 1 µg/mL; ED50 [14]: 31 mg/kg; ED50 [15]: 15 mg/kg; ED50 [16]: 2.6 mg/kg; ED50 [17]: 2.3 mg/kg; MIC [18]: 0.25 µg/mL; MIC [19]: 0.25 µg/mL
CC1=C(C(=O)O)N2C(=O)C(NC(=O)[C@H](N)c3ccc4cccc(Cl)c4c3)C2SC1 (stereo partly drawn),0.5,0.5,1,4,1,1,8,0.25,0.25,16,–
CC1=C(C(=O)O)N2C(=O)C(NC(=O)[C@@H](N)c3cc4c(s3)CCCC4)C2SC1 (stereo partly drawn),0.25,4,2,–,16,8,16,0.25,0.06,64,–
CC1=C(C(=O)O)N2C(=O)C(NC(=O)[C@H](N)c3csc4ccc(Cl)cc34)C2SC1 (stereo partly drawn),0.5,0.5,4,16,4,2,–,0.25,0.125,64,–
CC1=C(C(=O)O)N2C(=O)C(NC(=O)[C@H](N)c3csc4c(F)cccc34)C2SC1 (stereo partly drawn),0.5,0.5,4,128,16,8,4,0.5,0.125,–,–
CC1=C(C(=O)O)N2C(=O)C(NC(=O)[C@H](N)c3cccc4ccc(Cl)cc34)C2SC1 (stereo partly drawn),1,4,2,16,4,4,16,–,0.25,–,–
CC1=C(C(=O)O)N2C(=O)C(NC(=O)[C@H](N)c3csc4cccc(F)c34)C2SC1 (stereo partly drawn),4,4,–,–,–,–,16,–,1,–,MIC [20]: 4 µg/mL
CC1=C(C(=O)O)N2C(=O)[C@@H](NC(=O)[C@H](N)c3ccccc3)[C@H]2SC1 [CEPHALEXIN ANHYDROUS],4,–,–,–,–,–,–,1,0.5,–,ED50 [10]: 0.2 mg/kg; ED50 [11]: 0.34 mg/kg; ED50 [14]: 51 mg/kg; ED50 [21]: 3.3 mg/kg; ED50 [15]: 23 mg/kg; MIC [18]: 1 µg/mL; ED50 [22]: 2.9 mg/kg; MIC [19]: 0.5 µg/mL
CC1=C(C(=O)O)N2C(=O)C(NC(=O)[C@H](N)c3csc4cc(Cl)c(Cl)cc34)C2SC1 (stereo partly drawn),1,1,4,64,8,4,4,0.5,0.25,–,–
